The source of these data is ChEMBL document CHEMBL1201862, “PubChem BioAssay data set” (2004).

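Test compounds were applied to cells in 96-well plates for 48 hours at 5 doses. GI50: concentration for 50% inhibition of growth.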 Activity calls are given as the source filed them. No stated cut-off is given here; in the data, active = GI50 up to about 1.1 µM and inactive = higher. A value given as a limit tells only on which side of the number the result lay.

Among the test systems are EKVX; HOP-62; HOP-92; HT-29; K562; M14; M19-MEL; MOLT-4; NCI-H460; NCI/ADR-RES; OVCAR-4; OVCAR-5; OVCAR-8; SF-295; SF-539; SK-MEL-2; SK-MEL-5; SN12C; SR; T47D.
Holding throughout (assay): NCI anticancer screen, dose series, 48 h

For the compound `Cc1cc(NC(=O)NC(=O)c2ccccc2NC(=O)C(C)N)ccc1Oc1ncc(Br)cn1` (stereo unspecified), the GI50 is 0.335 µM (active) in the test with EKVX; 0.0306 µM (active) in the test on HOP-62; 1.92 µM (inactive) in the test with HOP-92; 0.116 µM (active) in the test on HT-29; 0.136 µM (active) in the test on K562; 0.13 µM (active) with M14. The GI50 in the test on M19-MEL is 0.292 µM (active); with MOLT-4 it was 0.23 µM (active); in the test on NCI-H460, 0.179 µM (active); in the test with NCI/ADR-RES, 0.0208 µM (active); with OVCAR-4, 5.36 µM (inactive); with OVCAR-5 it was 1.09 µM (active). Moreover, the GI50 with OVCAR-8 is 0.141 µM (active); in the test on SF-295 it was 0.0256 µM (active); in the test on SF-539 it was 0.0158 µM (active); in the test with SK-MEL-2, 0.153 µM (active); in the test with SK-MEL-5, 0.0457 µM (active); with SN12C, 0.0885 µM (active). For the same compound, the GI50 with SR was 0.111 µM (active); in the test on T47D, 15.1 µM (inactive).
Regarding `Nc1ccc2c(SCc3ccc([N+](=O)[O-])cc3)c3ccccc3nc2c1`, the GI50 in the test on EKVX was 24.8 µM (inactive); in the test with HOP-62 it was 21.8 µM (inactive); with HOP-92, 15.2 µM (inactive); with HT-29, 17.5 µM (inactive); with K562 it was 3.54 µM (inactive); with M14 it was 11.4 µM (inactive). The GI50 was 13.2 µM (inactive) in the test with M19-MEL; 2.3 µM (inactive) with MOLT-4; 21.7 µM (inactive) with NCI-H460; 18.2 µM (inactive) with NCI/ADR-RES; 14.1 µM (inactive) in the test with OVCAR-4; 18.3 µM (inactive) in the test on OVCAR-5. Moreover, the GI50 in the test on OVCAR-8 was 13.2 µM (inactive); with SF-295, 18.2 µM (inactive); in the test on SF-539, 16.4 µM (inactive); with SK-MEL-2, 16.4 µM (inactive); in the test with SK-MEL-5, 15.2 µM (inactive); in the test on SN12C, 18.6 µM (inactive). The GI50 in the test with SR is 1.42 µM (inactive); in the test with T47D it was 8.02 µM (inactive).
As to `O=c1/c(=C/c2ccccc2[N+](=O)[O-])sc2nnc(-c3cccnc3)n12`, the GI50 with EKVX was > 100 µM (inactive); in the test with HOP-62 it was > 100 µM (inactive); in the test with HOP-92 it was > 100 µM (inactive); in the test with HT-29 it was > 100 µM (inactive); in the test on K562 it was 74.1 µM (inactive); in the test on M14 it was > 100 µM (inactive). The GI50 was > 100 µM (inactive) with M19-MEL; 63.5 µM (inactive) in the test on MOLT-4; > 100 µM (inactive) in the test on NCI-H460; > 100 µM (inactive) with OVCAR-4; > 100 µM (inactive) in the test on OVCAR-5; > 100 µM (inactive) in the test with OVCAR-8. Besides, the GI50 in the test with SF-295 was > 100 µM (inactive); in the test on SF-539, > 100 µM (inactive); with SK-MEL-2, > 100 µM (inactive); with SK-MEL-5 it was > 100 µM (inactive); in the test on SN12C, > 100 µM (inactive); in the test on SR, 76.7 µM (inactive).
Turning to `[O-][n+]1c(-c2ccccc2)oc2ccccc21`, the GI50 with EKVX was 26.7 µM (inactive); in the test with HOP-62 it was 20.4 µM (inactive); in the test with HOP-92, > 100 µM (inactive); with HT-29, 21.4 µM (inactive); in the test with K562, 11.9 µM (inactive); with M14, 11 µM (inactive). In addition, the GI50 in the test with M19-MEL is 1.89 µM (inactive); in the test on MOLT-4 it was > 69.7 µM (inactive); with NCI-H460, 4.98 µM (inactive); in the test on OVCAR-4, 24.5 µM (inactive); in the test with OVCAR-5 it was 33.8 µM (inactive); in the test on OVCAR-8 it was 15.9 µM (inactive). Besides, the GI50 in the test with SF-295 was 14 µM (inactive); in the test on SF-539, 16.3 µM (inactive); in the test with SK-MEL-2, 17.7 µM (inactive); in the test with SK-MEL-5, 2.25 µM (inactive); with SN12C, 14.4 µM (inactive); in the test on SR it was > 100 µM (inactive).
For `C=C(C)C(=O)/N=C(\N)NC#N`, the GI50 in the test with EKVX was > 54 µM (inactive); in the test on HOP-62, > 63.1 µM (inactive); in the test with HOP-92, 14.2 µM (inactive); with HT-29 it was 62.8 µM (inactive); in the test with K562 it was 21.8 µM (inactive); in the test with M14, 45.3 µM (inactive). In addition, the GI50 in the test on M19-MEL is 23.6 µM (inactive); with NCI-H460, > 75 µM (inactive); in the test with NCI/ADR-RES, 35.9 µM (inactive); with OVCAR-4, 19.9 µM (inactive); with OVCAR-5, 168 µM (inactive); with OVCAR-8 it was 31.4 µM (inactive). Also, the GI50 in the test on SF-295 was > 90.2 µM (inactive); in the test on SF-539, 34.8 µM (inactive); in the test on SK-MEL-2, 47.2 µM (inactive); in the test on SK-MEL-5, 75.2 µM (inactive); with SN12C it was 36.4 µM (inactive); in the test on SR, 28.1 µM (inactive). Besides, in the test with T47D, the GI50 is 14.3 µM (inactive).
`CCN(CC)CCNc1ccc2ncn3c4cc(O)ccc4c(=O)c1c23`: the GI50 was 8.77 µM (inactive) with EKVX; 4.85 µM (inactive) with HOP-62; 0.519 µM (active) in the test with HOP-92; 1.95 µM (inactive) with HT-29; 2.11 µM (inactive) with K562; 4.5 µM (inactive) in the test with M14. The GI50 was 3.94 µM (inactive) with M19-MEL; 0.668 µM (active) in the test on MOLT-4; 3.04 µM (inactive) in the test on NCI-H460; 2.45 µM (inactive) with OVCAR-4; 11 µM (inactive) with OVCAR-5; 1.15 µM (inactive) with OVCAR-8. The GI50 was 2.5 µM (inactive) in the test with SF-295; 3.25 µM (inactive) with SF-539; 8.59 µM (inactive) in the test with SK-MEL-2; 3.66 µM (inactive) with SK-MEL-5; 3.11 µM (inactive) in the test on SN12C; 2.26 µM (inactive) with SR.
On to `COC1/C=C\C=C(/C)C(=O)Nc2cc3nc4ccc(Br)cc4oc-3c(c2=O)CC(C)CC(OC)C(O)C(C)/C=C(\C)C1OC(N)=O` (stereo unspecified), for which the GI50 was 3.17 µM (inactive) with EKVX; 4.1 µM (inactive) in the test with HOP-62; 0.0134 µM (active) in the test with HOP-92; < 0.0396 µM (active) in the test with HT-29; 0.01 µM (active) in the test with K562; 0.0453 µM (active) in the test on M14. The GI50 was 0.0383 µM (active) with M19-MEL; < 0.0103 µM (active) with MOLT-4; 0.63 µM (active) in the test on NCI-H460; 0.469 µM (active) in the test with OVCAR-4; 1.64 µM (inactive) in the test with OVCAR-5; 0.09 µM (active) with OVCAR-8. For the same compound, the GI50 with SF-295 was 12.6 µM (inactive); in the test on SF-539, 0.44 µM (active); in the test on SK-MEL-2, 0.0741 µM (active); in the test on SK-MEL-5 it was 0.178 µM (active); in the test on SN12C, 0.0481 µM (active); in the test on SR, 0.0116 µM (active). Further, the GI50 with T47D was 0.00277 µM (active).
With `O=C(CC1C(=O)Nc2ccccc2S1(=O)=O)Nc1cc(Cl)ccc1Cl` (stereo unspecified), the GI50 is 10.6 µM (inactive) with EKVX; 14.2 µM (inactive) with HOP-92; 17.4 µM (inactive) in the test on HT-29; 13.9 µM (inactive) with K562; 14.3 µM (inactive) with M14; 16.2 µM (inactive) in the test with M19-MEL. Moreover, the GI50 is 6.01 µM (inactive) with MOLT-4; 13.6 µM (inactive) in the test on NCI-H460; 16.8 µM (inactive) in the test on OVCAR-4; 24.4 µM (inactive) with OVCAR-5; 17.5 µM (inactive) in the test on OVCAR-8; 17.5 µM (inactive) with SF-295. For the same compound, the GI50 is 2.4 µM (inactive) with SF-539; 14.9 µM (inactive) in the test on SK-MEL-2; 13.5 µM (inactive) in the test on SK-MEL-5; 15.6 µM (inactive) with SN12C; 7.16 µM (inactive) in the test with SR.
Turning to `C=C1C(=O)C23C(CC(OC(C)=O)C1[C@@H]2OC(C)=O)C1(C)C(OC(C)=O)CCC(C)(C)C1C[C@@H]3OC(C)=O` (stereo partly specified), the GI50 with EKVX is 3.31 µM (inactive); in the test on HOP-62, 3.14 µM (inactive); in the test on HOP-92, 0.167 µM (active); in the test with HT-29, 1.01 µM (active); in the test on K562 it was 0.755 µM (active); in the test with M14 it was 1.56 µM (inactive). The GI50 was 1.75 µM (inactive) with M19-MEL; 0.365 µM (active) with MOLT-4; 1.61 µM (inactive) in the test on NCI-H460; 1.91 µM (inactive) with OVCAR-4; 1.86 µM (inactive) with OVCAR-5; 0.418 µM (active) with OVCAR-8. Moreover, the GI50 is 1.46 µM (inactive) with SF-295; 1.76 µM (inactive) in the test with SF-539; 1.93 µM (inactive) in the test with SK-MEL-2; 1.84 µM (inactive) with SK-MEL-5; 1.46 µM (inactive) in the test with SN12C; 1.57 µM (inactive) with SR.
As for `CSC[S+]([O-])C[C@H](CO)NC(=O)/C=C/c1c(C)[nH]c(=O)[nH]c1=O` (stereo partly specified), the GI50 was 1.87 µM (inactive) in the test with EKVX; 1.15 µM (inactive) in the test on HOP-62; 0.257 µM (active) with HOP-92; 1.85 µM (inactive) in the test on HT-29; 1.32 µM (inactive) in the test with K562; 1.16 µM (inactive) in the test with M14. In addition, the GI50 with M19-MEL was 0.718 µM (active); in the test on MOLT-4 it was 1.92 µM (inactive); in the test on NCI-H460, 0.48 µM (active); in the test on NCI/ADR-RES it was 1.27 µM (inactive); in the test with OVCAR-4, 0.251 µM (active); with OVCAR-5, 2.06 µM (inactive). In addition, the GI50 in the test on OVCAR-8 is 1.43 µM (inactive); with SF-295, 0.457 µM (active); in the test on SF-539 it was 0.741 µM (active); with SK-MEL-2 it was 1.08 µM (active); in the test on SK-MEL-5, 2.44 µM (inactive); in the test on SN12C it was 0.776 µM (active). The GI50 with SR was 2.04 µM (inactive).
